What all share (assay type): in vivo
Data set [1] has as its system MES-induced seizure spread. Put plainly: Maximal electroshock seizure (MES) test, mice i.p. Particulars: for MES, number of animals protected/total number tested: mice i.p. From the text:
(§1) The fluoro derivatives synthesized were submitted to the National Institute of Neurological Disorders and Stroke (NINDS) for evaluation in a standard panel of assays. Two convulsant tests (MES and scMET), and a toxicity screen (rotorod in mice, positional sense and gait in rats) were employed for evaluating the compounds activity as neuroprotecting agents. These testing procedures are described in detail in Molecular and Cellular Targets for Anti-epileptic Drugs, eds. G. Avanzini, G. Regesta, P. Tanganelli, M. Avoli, 1997, John Libbey & Company Ltd, pp 191-198. The felbamate derivatives were evaluated for anticonvulsant activity following intraperitoneal (i.p.) administration in mice and oral administration in rats.
(§2) The Maximal Electroshock Seizure (MES)
(§3) The MES test is a model for generalized tonic-clonic seizures and is used to identify compounds which prevent seizure spread. The behavioral and electrographic seizures generated in this model are consistent with the human disorder. In the MES test, an electrical stimulus of 0.2 s in duration (50 mA in mice and 150 mA in rat at 60 Hz) was delivered via corneal electrodes primed with an electrolyte solution containing an anesthetic agent. Mice were tested at 30 minutes and 4 hours following doses of 30, 100 and 300 mg/kg of test compound. Rats were tested at time intervals between 0.25 and 4 hours following a standard oral dose of 30 mg/kg. Abolition of the hindlimb tonic extensor component indicates the test compound's ability to inhibit MES-induced seizure spread.
(§4) For the MES and scMET tests the data is presented in the form of the number of animals protected by the administered compound/total number of animals tested. […] Qualitative data was obtained for fluoro felbamate 12 (Tables 1 and 2A), fluoro monocarbamate felbamate 13 (Tables 1 and 2B), and fluorodioxo 16 (Tables 1 and 2C) and for cyclic felbamate 21 (Tables 5 and 6B) and cyclic monocarbamate 22 (Tables 5 and 6A). More extensive quantitative data was also obtained for fluoro felbamate 12 in mice (Table 3) and rats (Table 4).
In general terms: In the maximal electroshock model the usual endpoint is tonic extension of the hind limbs.

For data set [2], the system named is pentylenetetrazol-induced clonic seizures. Put plainly: Subcutaneous Metrazol seizure test (scMET), mice i.p.
Description: as §1
The Subcutaneous (Metrazol) Seizure Test (scMET)
This is a model that primarily identifies compounds that raise seizure threshold. With some minor exceptions, the pharmacological profile of the scMET seizure model is consistent with the human condition. The scMET test utilizes a dose of pentylenetetrazol (85 mg/kg in Carworth Farms No. 1 mice and 70 mg/kg in Sprague-Dawley rats) that induces clonic seizures lasting for a period of at least five seconds in 97% (CD97) of animals tested. At the anticipated time of testing the convulsant is administered subcutaneously. The test compound is administered intraperitoneally in mice and orally in rats. Animals are observed over a 30 minute period. Absence of clonic spasms in the observed time period indicates a compound's ability to abolish the effect of pentylenetetrazol on seizure threshold.
as §4

A short description of data set [3]: Minimal neurotoxicity (TOX), rotorod test, mice i.p. The note with it: mice i.p.
Description: as §1, with “G. Avanzini, G. Regesta, P. Tanganelli, M. Avoli, 1997, John Libbey & Company Ltd, pp 191-198.” left out, “rats. […]” for “rats.”
On the technique in general: The rotarod test checks motor coordination on a turning rod.

The subject of data set [4] is MES-induced seizure spread. Briefly: Maximal electroshock seizure (MES) test, rats p.o. The note with it: for anti-seizure activity in rats (in words): rat models; for MES, number of animals protected/total number tested: rat p.o., 30 mg/kg.
Description: as §1, §2, §3, §4

The nature of data set [5]: Minimal neurotoxicity (TOX), positional sense and gait and stance tests, rats p.o. The note with it: rat p.o., 30 mg/kg.
Description: as §1, with “G. Avanzini, G. Regesta, P. Tanganelli, M. Avoli, 1997, John Libbey & Company Ltd, pp 191-198.” left out
Rats are examined for behavioral toxicity by the positional sense test and a gait and stance test. […] In the gait and stance test, neurotoxicity is indicated by a circular or zigzag gait, ataxia, abnormal spread of the legs, abnormal posture, tremor hyperactivity, lack of exploratory behavior, somnolence, stupor or catalepsy. […]

Another data set relates to seizures. Put plainly: NINDS anticonvulsant panel (MES, scMET), overall statements. Particulars: overall statement.
Description: as §1, §4

The text below walks through data of US20030166648A1, “Felbamate derived compounds” (priority 2002, published 2003).

Molecules are shown by their SMILES.

Regarding `NC(=O)OCC1(c2ccccc2)COC(=O)N1` (stereo not shown) [cyclic felbamate], the “MES, number of animals protected/total number tested” value in data set [1] (30 mg/kg, 0.5 h) was 0/1; in data set [1] (30 mg/kg, 4.0 h), 0/1; in data set [1] (100 mg/kg, 0.5 h) it was 0/3; in data set [1] (100 mg/kg, 4.0 h), 0/3; in data set [1] (300 mg/kg, 0.5 h), 0/1; in data set [1] (300 mg/kg, 4.0 h) it was 0/1. Moreover, the “MES, number of animals protected/total number tested” value in data set [4] (0.25 h) was 2/4; in data set [4] (0.5 h), 2/4; in data set [4] (1.0 h) it was 3/4; in data set [4] (2.0 h) it was 0/4; in data set [4] (4.0 h) it was 3/4. Also, the “ScMET, number of animals protected/total number tested” value in data set [2] (30 mg/kg, 0.5 h) is on record as 0/1; in data set [2] (30 mg/kg, 4.0 h) it was 0/1; in data set [2] (100 mg/kg, 0.5 h), 0/1; in data set [2] (100 mg/kg, 4.0 h), 0/1; in data set [2] (300 mg/kg, 0.5 h) it was 0/1; in data set [2] (300 mg/kg, 4.0 h), 0/1. In addition, the “TOX, number of animals exhibiting toxic effects/total number tested” value in data set [3] (30 mg/kg, 0.5 h) was 0/4; in data set [3] (30 mg/kg, 4.0 h) it was 0/2; in data set [3] (100 mg/kg, 0.5 h) it was 0/8; in data set [3] (100 mg/kg, 4.0 h), 0/4; in data set [3] (300 mg/kg, 0.5 h), 0/4; in data set [3] (300 mg/kg, 4.0 h), 0/2. Moreover, the “TOX, number of animals exhibiting toxic effects/total number tested” value in data set [5] (0.25 h), in data set [5] (0.5 h), in data set [5] (1.0 h), in data set [5] (2.0 h) and in data set [5] (4.0 h) was 0/4 in each case. For the same molecule, the “anti-seizure activity in rats (in words)” value in data set [4] is “potent activity”.

Turning to `O=C1NC(=O)C(F)(c2ccccc2)CO1` (stereo not shown) [fluoro dioxo, 5-Fluoro-5-phenyl-1,3-oxazinane2,4-dione], in data set [1] (mice, MES and scMET (Table 1)), the “anti-seizure activity in mice (in words)” value was “inactive”. The “TOX, number of animals exhibiting toxic effects/total number tested” value in data set [3] (30 mg/kg, 0.5 h) was 0/4; in data set [3] (30 mg/kg, 4.0 h), 0/2; in data set [3] (100 mg/kg, 0.5 h) it was 0/8; in data set [3] (100 mg/kg, 4.0 h), 0/4; in data set [3] (300 mg/kg, 0.5 h) it was 1/4; in data set [3] (300 mg/kg, 4.0 h), 0/2. Besides, the “TOX, number of animals exhibiting toxic effects/total number tested” value in data set [5] (0.25 h), in data set [5] (0.5 h), in data set [5] (1.0 h), in data set [5] (2.0 h) and in data set [5] (4.0 h) was 0/4 each time. In addition, in data set [4], the “anti-seizure activity in rats (in words)” value is reported as “strong anti-seizure activity”.

As for `NC(=O)OCC(F)(CO)c1ccccc1` (stereo not shown) [fluoro monocarbamate felbamate, 2-Fluoro-2-phenyl-1,3-propanediol monocarbamate], the “MES protection (in words)” value in data set [1] (mice, 100 mg/kg) is on record as “moderate MES protection”. The “TOX, number of animals exhibiting toxic effects/total number tested” value in data set [3] (30 mg/kg, 0.5 h) is 0/4; in data set [3] (30 mg/kg, 4.0 h), 0/2; in data set [3] (100 mg/kg, 0.5 h), 3/8; in data set [3] (100 mg/kg, 4.0 h) it was 0/4; in data set [3] (300 mg/kg, 0.5 h) it was 2/4; in data set [3] (300 mg/kg, 4.0 h) it was 0/2. Moreover, the “TOX, number of animals exhibiting toxic effects/total number tested” value in data set [5] (0.25 h), in data set [5] (0.5 h), in data set [5] (1.0 h), in data set [5] (2.0 h) and in data set [5] (4.0 h) was 0/4 throughout. Moreover, the “anti-seizure activity (in words)” value in the data set with seizures is listed as “show anti-seizure activity”.
